This experiment concerns the target T1, Protein-glutamine gamma-glutamyltransferase 2 (Homo sapiens, UniProt P21980).
T1 sequence (P21980 whole entry): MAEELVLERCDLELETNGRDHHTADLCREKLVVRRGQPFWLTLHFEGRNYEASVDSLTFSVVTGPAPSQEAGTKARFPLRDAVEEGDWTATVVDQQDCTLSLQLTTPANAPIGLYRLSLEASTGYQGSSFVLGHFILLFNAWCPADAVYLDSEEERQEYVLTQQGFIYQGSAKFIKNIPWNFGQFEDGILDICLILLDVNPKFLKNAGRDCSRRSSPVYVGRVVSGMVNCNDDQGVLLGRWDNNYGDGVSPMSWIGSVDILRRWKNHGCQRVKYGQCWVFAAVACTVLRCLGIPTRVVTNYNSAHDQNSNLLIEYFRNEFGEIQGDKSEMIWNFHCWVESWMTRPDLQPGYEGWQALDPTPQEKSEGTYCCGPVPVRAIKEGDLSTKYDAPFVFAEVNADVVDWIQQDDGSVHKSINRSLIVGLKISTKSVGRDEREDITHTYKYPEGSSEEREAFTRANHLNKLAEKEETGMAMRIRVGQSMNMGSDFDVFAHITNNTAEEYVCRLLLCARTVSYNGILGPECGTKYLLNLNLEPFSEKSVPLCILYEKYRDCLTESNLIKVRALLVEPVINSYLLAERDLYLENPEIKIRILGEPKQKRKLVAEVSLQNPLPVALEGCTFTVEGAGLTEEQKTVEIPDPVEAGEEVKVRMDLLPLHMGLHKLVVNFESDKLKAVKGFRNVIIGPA
Kind of experiment: TG Inhibition Assay. Particulars: pH 7.2.

pKi: −log10 of the molar value.

Description: Recombinant of human TG2 was expressed in E.coli and purified to >90% homogeneity.

`O=C(N[C@@H](Cc1c[nH]c2ccc(O)cc12)C(=O)NCC1CC(Br)=NO1)OCc1ccccc1` (some centres undefined) [Dihydroisoxazole, 1f]: the pKi – broadly, the negative decadic logarithm of the Ki, by convention in mol/L – is 3.51. Regarding `O=C(N[C@@H](Cc1ccccc1)C(=O)NCC1CC(Br)=NO1)OCCc1ccccc1` (some centres undefined) [Dihydroisoxazole, 3d], the pKi was 4.21. Compound `O=C(N[C@@H](Cc1ccccc1)C(=O)NCC1CC(Br)=NO1)Oc1ccc2ccccc2c1` (some centres undefined) [Dihydroisoxazole, 3e] had a pKi of 4.37. The same measure for `O=C(N[C@@H](Cc1ccccc1)C(=O)NCC1CC(Br)=NO1)OCC1=Cc2ccccc2S1(=O)=O` (some centres undefined) [Dihydroisoxazole, 3f]: 4.06.

The record behind these values is BindingDB's records for doi:10.1016/j.chembiol.2005.02.007 (Stanford University, 2005).
